Reference: ChEMBL document CHEMBL1201862, “PubChem BioAssay data set” (2004)
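Step 1: Grow cells in 96-well plates. Step 2: Expose to compound for 48 hours at 5 concentrations. Step 3: Interpolate endpoints linearly; if unreached, use highest concentration. GI50 is the concentration that inhibits growth by half.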 Activity calls are given as the source filed them. Rule as the data show it: active = GI50 up to about 1.1 µM and inactive = higher.

Assays:
Experiment in all cases: NCI-60 cell line screen, 48 h
M19-MEL = test system: M19-MEL
DMS-273 = test system: DMS-273
DMS-114 = test system: DMS-114
SK-MEL-28 = test system: SK-MEL-28
OVCAR-4 = test system: OVCAR-4
LXFL 529 = test system: LXFL 529
SNB-78 = test system: SNB-78
MCF7 = test system: MCF7
OVCAR-5 = test system: OVCAR-5
MDA-N = test system: MDA-N
COLO 205 = test system: COLO 205
BT-549 = test system: BT-549
CAKI-1 = test system: CAKI-1
EKVX = test system: EKVX
DU-145 = test system: DU-145
MDA-MB-435 = test system: MDA-MB-435
PC-3 = test system: PC-3
SR = test system: SR
RPMI-8226 = test system: RPMI-8226

Measured: GI50

CN(C)c1nc(N(C)C)nc(N(C)CN(C)c2ccc(Cl)cc2)n1
inactive: M19-MEL > 100 µM | DMS-273 > 100 µM | DMS-114 > 100 µM | SK-MEL-28 > 100 µM | OVCAR-4 > 100 µM | LXFL 529 > 100 µM | SNB-78 > 100 µM

Oc1ccc(-c2nc3ccc(Br)cc3s2)cc1
inactive: MCF7 4.85 µM | OVCAR-5 24 µM | MDA-N 25.6 µM | COLO 205 15.9 µM | BT-549 18.1 µM | CAKI-1 15.7 µM | EKVX 13 µM | DU-145 16.9 µM | MDA-MB-435 21.1 µM | PC-3 19.2 µM | SR 10.3 µM | RPMI-8226 15.1 µM
